Laboratory results from ChEMBL document CHEMBL2449286, “Structure-activity data for a series of P-glycoprotein inhibitors (Supplementary Data to CHEMBL1142990)”.

Target: ATP-dependent translocase ABCB1 (Homo sapiens, UniProt P08183)
Sequence (P08183 whole entry): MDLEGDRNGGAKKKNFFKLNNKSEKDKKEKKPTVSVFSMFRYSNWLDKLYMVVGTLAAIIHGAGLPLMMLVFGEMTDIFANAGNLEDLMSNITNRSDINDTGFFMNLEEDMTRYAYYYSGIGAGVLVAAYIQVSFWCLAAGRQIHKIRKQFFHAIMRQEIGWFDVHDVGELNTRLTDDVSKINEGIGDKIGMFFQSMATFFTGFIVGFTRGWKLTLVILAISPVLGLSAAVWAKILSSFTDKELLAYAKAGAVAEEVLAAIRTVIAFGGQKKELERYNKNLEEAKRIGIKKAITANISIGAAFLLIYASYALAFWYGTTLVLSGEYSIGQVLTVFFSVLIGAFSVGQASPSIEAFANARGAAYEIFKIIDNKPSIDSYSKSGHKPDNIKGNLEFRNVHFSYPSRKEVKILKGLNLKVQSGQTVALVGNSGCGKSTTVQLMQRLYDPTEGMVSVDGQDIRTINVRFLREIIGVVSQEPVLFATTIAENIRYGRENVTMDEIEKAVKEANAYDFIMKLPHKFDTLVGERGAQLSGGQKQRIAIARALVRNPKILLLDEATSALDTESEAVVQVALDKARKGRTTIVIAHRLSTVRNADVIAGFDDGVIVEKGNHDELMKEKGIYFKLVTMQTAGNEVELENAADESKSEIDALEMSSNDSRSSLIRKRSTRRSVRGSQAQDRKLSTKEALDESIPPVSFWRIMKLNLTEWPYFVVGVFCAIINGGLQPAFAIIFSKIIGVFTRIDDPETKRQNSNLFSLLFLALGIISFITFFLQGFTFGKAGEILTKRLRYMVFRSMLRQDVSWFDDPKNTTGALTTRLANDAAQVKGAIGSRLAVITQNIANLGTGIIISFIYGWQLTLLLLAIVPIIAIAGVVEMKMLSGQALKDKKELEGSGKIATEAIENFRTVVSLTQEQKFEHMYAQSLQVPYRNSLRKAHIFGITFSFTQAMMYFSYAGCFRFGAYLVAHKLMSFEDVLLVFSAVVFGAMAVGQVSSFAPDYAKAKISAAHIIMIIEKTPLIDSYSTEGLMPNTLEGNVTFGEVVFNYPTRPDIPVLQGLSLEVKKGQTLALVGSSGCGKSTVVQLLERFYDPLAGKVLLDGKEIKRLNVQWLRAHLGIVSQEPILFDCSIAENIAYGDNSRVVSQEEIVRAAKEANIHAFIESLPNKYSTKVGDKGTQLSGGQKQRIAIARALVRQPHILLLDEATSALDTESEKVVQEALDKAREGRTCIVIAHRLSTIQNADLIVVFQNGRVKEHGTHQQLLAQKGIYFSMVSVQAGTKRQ

Row | Structure (SMILES) | EC50
1 | O=C(CCc1ccccc1)c1ccccc1OC[C@H](O)CN1CCN(C(=O)c2ccccc2)CC1 | 0.129 µM
2 | CN(CCN(C)S(=O)(=O)c1cccc2c(N(C)C)cccc12)C[C@@H](O)COc1ccccc1C(=O)c1ccccc1 | 1.82 µM
3 | O=C(CCc1ccccc1)c1ccccc1OC[C@H](O)CN1CCN(c2ccccc2)CC1 | 0.617 µM
4 | CO[C@H](CCc1ccccc1)c1ccccc1OC[C@H](O)CN(C(C)C)C(C)C | 0.661 µM
5 | Cc1cccc(N2CCN(C[C@@H](O)COc3cccc4c3C(=O)[C@@H](Cc3ccccc3)C4)CC2)c1C | 0.166 µM
6 | Cc1ccc(OC[C@H](O)CN2CCN(c3cccc(C)c3C)CC2)c(C(=O)CCc2ccccc2)c1 | 0.0562 µM
7 | O=C1C[C@H](CN2CCCCC2)Oc2ccccc21 | 178 µM
8 | CO[C@@H](CCc1ccccc1)c1ccccc1OC[C@H](O)CN1CCN(c2ccccc2C)CC1 | 0.0363 µM
9 | O=C(CCc1ccccc1)c1ccccc1OC[C@H](O)CNC(c1ccccc1)c1ccccc1 | 10.5 µM
10 | O=C(CCc1ccccc1)c1ccccc1OC[C@H](O)CNCCC(c1ccccc1)c1ccccc1 | 0.724 µM
11 | CCC(=O)c1ccccc1OC[C@H](O)CN1CCCCC1 | 14.5 µM
12 | CC(C)N(C[C@@H](O)COc1ccc(C(=O)c2ccccc2)cc1)C(C)C | 0.437 µM
13 | Cc1c(C(=O)c2ccccc2)c(=O)n(C)n1C[C@H](O)CN(C(C)C)C(C)C | 24 µM
14 | CCC(=O)c1ccccc1OC[C@H](O)CN1CCN(c2ccc(F)cc2)CC1 | 0.832 µM
15 | CC(C)[C@@H]1CO[C@@H]2[C@@H](N1)c1cc(C#N)ccc1OC2(C)C | 49 µM
16 | CC(C)[C@H]1N[C@H]2c3cc(C#N)ccc3OC(C)(C)[C@@H]2OC1=O | 9.55 µM
17 | Cc1ccc(C(=O)N2c3ccccc3[C@@H](N(CCO)Cc3ccccc3)[C@@H](O)[C@H]2C)cc1 | 1.38 µM
18 | CC(=O)c1cccc(OC[C@H](O)CN2CCN(c3ccc(F)cc3)CC2)c1 | 10 µM
19 | CCCN(C[C@@H](O)COc1ccccc1C(=O)CCc1ccccc1)C(=O)c1ccccc1 | 1.7 µM
20 | O=C(CCc1ccccc1)c1ccc(OC[C@H](O)CN2CCOCC2)cc1 | 6.92 µM
21 | Cc1ccccc1N1CCN(C[C@@H](O)COc2ccccc2C(=O)CCc2ccc(N(C)C)cc2)CC1 | 0.0129 µM
22 | COc1ccc(OC[C@H](O)CN2CCN(c3ccccc3C)CC2)c(C(=O)CCc2ccccc2)c1 | 0.178 µM

Row | Structure (SMILES) | EC50
23 | Cc1cccc(N2CCN(C[C@@H](O)COc3cccc(C(=O)CCc4cccc5ccccc45)c3)CC2)c1C | 0.263 µM
24 | O=C(CCc1cccc2ccccc12)c1ccc(OC[C@H](O)CN2CCOCC2)cc1 | 1.55 µM
25 | C[C@H]1C(=O)O[C@H]2[C@@H](c3cc(C#N)ccc3OC2(C)C)N1C | 47.9 µM
26 | CC(C)C(CO)N(C)[C@H]1c2cc(C#N)ccc2OC(C)(C)[C@@H]1O (stereo partly specified) | 6.92 µM
27 | Cc1cccc(N2CCN(C[C@@H](O)COc3cccc(C(=O)CCc4ccccc4)c3)CC2)c1C | 0.138 µM
28 | CC(=O)c1ccc(OC[C@H](O)CN2CCCCC2)cc1 | 49 µM
29 | CC(C)[C@@H]1N[C@@H]2c3cc(C#N)ccc3OC(C)(C)[C@H]2OC1=O | 15.5 µM
30 | CN[C@@H]1c2cc(C#N)ccc2OC(C)(C)[C@H]1O | 1700 µM
31 | CCC(=O)c1ccccc1OC[C@H](O)CN(C(C)C)C(C)C | 4.27 µM
32 | CCC(=O)c1ccccc1OC[C@H](O)CNCCC(c1ccccc1)c1ccccc1 | 0.12 µM
33 | CC(=O)c1ccccc1OC[C@H](O)CN1CCC(O)(c2ccccc2)CC1 | 3.16 µM
34 | CC(=O)c1cccc(OC[C@H](O)CN2CCN(c3cccc(C)c3C)CC2)c1 | 0.38 µM
35 | CC(C)[C@@H](C(=O)OC(C)(C)C)N(C)[C@@H]1c2cc(C#N)ccc2OC(C)(C)[C@H]1O | 0.955 µM
36 | Cc1ccccc1N1CCN(C[C@@H](O)COc2ccccc2C(=O)CCc2ccc(Cl)cc2)CC1 | 0.0191 µM
37 | CCCNC[C@@H](O)COc1ccc(C)cc1C(=O)c1ccccc1 | 1.2 µM
38 | CO[C@H](CCc1ccccc1)c1ccccc1OC[C@H](O)CN1CCCCC1 | 0.174 µM
39 | Cc1c([C@H](O)c2ccccc2)c(=O)n(-c2ccccc2)n1C[C@H](O)CN(C(C)C)C(C)C | 24 µM
40 | Cc1ccccc1N1CCN(C[C@@H](O)COc2cccc(C(=O)CCc3ccccc3)c2)CC1 | 0.0741 µM
41 | O=C(CCc1cccc2ccccc12)c1ccccc1OC[C@H](O)CNCCC(c1ccccc1)c1ccccc1 | 0.724 µM
42 | COc1ccc(OC[C@H](O)CN2CCN(c3ccccc3C)CC2)c(C(C)=O)c1 | 0.851 µM
43 | O=C(CCc1ccccc1)c1ccccc1OC[C@H](O)CN1CCC(O)(c2ccccc2)CC1 | 0.0575 µM
44 | CC(C)[C@H]1C(=O)O[C@H]2[C@@H](c3cc(C#N)ccc3OC2(C)C)N1C | 47.9 µM

Row | Structure (SMILES) | EC50
45 | CC1(C)Oc2ccc(C#N)cc2[C@H]2N[C@@H](Cc3ccccc3)C(=O)O[C@@H]21 | 2.69 µM
46 | CC(C)[C@@H]1N[C@H]2c3cc(C#N)ccc3OC(C)(C)[C@@H]2OC1=O | 58.9 µM
47 | CC(C)N(C[C@@H](O)COc1ccccc1[C@H](O)CCc1ccccc1)C(C)C | 1.74 µM
48 | O=C1CCc2c(OC[C@H](O)CN3CCCCC3)cccc21 | 11.2 µM
49 | CC(C)(C)c1ccc(N2C(=O)c3ccccc3N[C@H]2c2ccc3c(c2)OCO3)cc1 | 0.741 µM
50 | CC(=O)c1cccc(OC[C@H](O)CN2CCOCC2)c1 | 129 µM
51 | Cc1ccccc1N1CCN(C[C@@H](O)COc2ccccc2C(=O)CCc2ccccc2)CC1 | 0.0269 µM
52 | Cc1c(C(=O)c2cccs2)c(=O)n(-c2ccccc2)n1C[C@H](O)CNC(C)(C)C | 72.4 µM
53 | CC1(C)Oc2ccc(C#N)cc2[C@H](N(CCO)Cc2ccccc2)[C@H]1O | 5.37 µM
54 | CC(=O)c1ccccc1OC[C@H](O)CN1CCOCC1 | 67.6 µM
55 | Cc1ccc(C(=O)N2c3ccccc3[C@H](NCc3ccccc3)[C@@H](O)[C@H]2C)cc1 | 3.24 µM
56 | CC(C)[C@@H](N[C@@H]1c2cc(C#N)ccc2OC(C)(C)[C@H]1O)C(=O)OC(C)(C)C | 4.68 µM
57 | Cc1ccccc1N1CCN(C[C@@H](O)COc2ccc(C(=O)c3ccccc3)cc2)CC1 | 0.501 µM
58 | Cc1ccc(OC[C@H](O)CN2CCOCC2)c(C(=O)CCc2ccccc2)c1 | 1.66 µM
59 | CC(C)[C@@H](CCl)N(C)[C@@H]1C2C=C(C#N)C=CC2OC(C)(C)[C@H]1O (stereo partly specified) | 2.24 µM
60 | CO[C@H](CCc1ccccc1)c1ccccc1OC[C@H](O)CNCCC(c1ccccc1)c1ccccc1 | 0.759 µM
61 | CC(C)[C@H]1C(=O)O[C@@H]2[C@H](c3cc(C#N)ccc3OC2(C)C)N1C | 16.6 µM
62 | COc1ccc(N2CCN(C[C@@H](O)COc3ccc(C)cc3C(C)=O)CC2)cc1 | 3.47 µM
63 | O=C(CCc1ccccc1)c1ccc(OC[C@H](O)CNCCC(c2ccccc2)c2ccccc2)cc1 | 0.501 µM
64 | CC(=O)c1ccccc1OC[C@H](O)CN1CCCCC1 | 31.6 µM
65 | O=C(CCc1cccc2ccccc12)c1ccc(OC[C@H](O)CN2CCCCC2)cc1 | 0.263 µM
66 | O=C(CCc1cccc2ccccc12)c1cccc(OC[C@H](O)CN2CCOCC2)c1 | 0.631 µM
